From PMC10923852, “Gustavson syndrome is caused by an in-frame deletion in RBMX associated with potentially disturbed SH3 domain interactions” (European Journal of Human Genetics, 2023) come the findings set out here.

Assay [1] has as its target T1, BIN1-SH3 (Homo sapiens, UniProt O00499).
T1 construct: GST (cleaved yes); Genecast (peptides); host or cells: E. coli BL21-DE3 GOLD
T1 sequence (O00499 520-593 limits assumed): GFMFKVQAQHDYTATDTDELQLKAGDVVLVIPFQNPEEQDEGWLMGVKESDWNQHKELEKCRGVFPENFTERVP
The experiment in a line: Fluorescence polarization saturation binding, BIN1-SH3 domain with FITC-labeled hnRNP G peptide. Conditions: FITC-labeled peptide 10 nM. As for the experimental part: (§1) To further investigate if the tri-proline region spanning the variant had the capacity to interact with SH3 domains, a fluorescence polarization assay with hnRNP G peptides and SH3 domains were performed. Wildtype and mutant (△P162) hnRNP G peptides of different lengths spanning the region of interest (P38159) were ordered from Genecast (Supplementary material 2) with or without Fluorescein isothiocyanate (FITC)-label (purity >95%, dissolved in 50 mM potassium phosphate pH 7.5). Two SH3 domains were expressed and purified: ASAP1-SH3 (Addgene: 91501), BIN1-SH3 (GenScript) according to standard protocol (Supplementary material 2). […]
(§2) To determine the affinity between BIN-SH3 domain and the non-labeled hnRNP G peptides, displacement experiments were performed where the fixed concentration of FITC-labeled peptide and protein was mixed with an increasing concentration of displacer non-labeled peptide. […] All results were analyzed with GraphPad Prism to determine the dissociation constant for labeled peptide and the IC50 values, and Microsoft Excel was used to calculate KD from IC50. All fluorescence polarization experiments were performed in 50 mM potassium phosphate pH 7.5, containing 1 mM tris(2-carboxyethyl)phosphine (TCEP). […]
Background: Fluorescence polarisation rises when a labelled molecule tumbles more slowly, as on binding a larger partner.

For assay [2], the target named is T2, ASAP1-SH3 (Homo sapiens, UniProt Q9ULH1).
T2 construct: Two SH3 domains were expressed and purified: ASAP1-SH3 (Addgene: 91501), BIN1-SH3 (GenScript); GST (cleaved yes); host or cells: E. coli BL21-DE3 GOLD
T2 sequence (Q9ULH1 1067-1129 limits assumed): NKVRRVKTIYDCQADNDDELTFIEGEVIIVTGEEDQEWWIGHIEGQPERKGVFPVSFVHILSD
The experiment in a line: Fluorescence polarization saturation binding, ASAP1-SH3 domain with FITC-labeled hnRNP G peptide. Particulars: FITC-labeled peptide 10 nM. As for the experimental part: as §1, §2

Assay [3] concerns the target T1, BIN1-SH3. The experiment in a line: Fluorescence polarization displacement, BIN1-SH3 domain with non-labeled hnRNP G peptides. It is filed as binding. Conditions: for binding affinity for BIN1-SH3 (in words): fluorescence polarization, 50 mM potassium phosphate pH 7.5, 1 mM TCEP. As for the experimental part: (§3) To further investigate if the tri-proline region spanning the variant had the capacity to interact with SH3 domains, a fluorescence polarization assay with hnRNP G peptides and SH3 domains were performed. Wildtype and mutant (△P162) hnRNP G peptides of different lengths spanning the region of interest (P38159) were ordered from Genecast (Supplementary material 2) with or without Fluorescein isothiocyanate (FITC)-label (purity >95%, dissolved in 50 mM potassium phosphate pH 7.5). Two SH3 domains were expressed and purified: ASAP1-SH3 (Addgene: 91501), BIN1-SH3 (GenScript) according to standard protocol (Supplementary material 2).
(§4) To determine the affinity between BIN-SH3 domain and the non-labeled hnRNP G peptides, displacement experiments were performed where the fixed concentration of FITC-labeled peptide and protein was mixed with an increasing concentration of displacer non-labeled peptide. The mP signal was investigated to determine the IC50 values, which were then converted to dissociation constants as previously described. All results were analyzed with GraphPad Prism to determine the dissociation constant for labeled peptide and the IC50 values, and Microsoft Excel was used to calculate KD from IC50. All fluorescence polarization experiments were performed in 50 mM potassium phosphate pH 7.5, containing 1 mM tris(2-carboxyethyl)phosphine (TCEP).
SH3 domains were expressed by transforming expression constructs into E. coli (BL21-DE3 GOLD) and grown in LB media with 50 µg/ml ampicillin (ASAP1) or 50 µg/ml kanamycin (BIN1) at 37°C until reaching an OD600 of 0.6. Protein expression was induced with 1mM isopropyl-β-thiogalactopyranoside and the protein expression proceeded overnight at 18 °C. Cells were harvested and resuspended in lysis buffer (50 mM Tris/HCl pH 7.8, 10 µg/mL DNase I and RNase A (Hoffman-La Roche, Switzerland), 300 mM NaCl, 4 mM MgCl2, 2 mM CaCl2 and cOmplete EDTA-free Protease Inhibitor Cocktail (Hoffman-La Roche)) and lysed by sonication. Cell lysate was clarified by centrifugation at 20,000 g for 40 min, filtered and transferred to Glutathione Sepharose 4 Fast Flow media (GE Healthcare). After 30-minute incubation, glutathione media was washed with wash buffer (50 mM Tris/HCl pH 7.8 300 mM NaCl, 4 mM DTT), eluted with elution buffer (50 mM Tris/HCl pH 7.8 300 mM NaCl, 4 mM DTT, 10 mM reduced glutathione), and the GST-tag was cleaved overnight with PreScission protease (BIN1) or Thrombin (ASAP1). Next day the cleaved protein was applied to a […] to remove the tag, and pure protein was dialyzed into 50 mM potassium phosphate buffer pH 7.4, and concentrated using the Amicon ultra 15ml centrifugal filters (3kDa cutoff, Merck Millipore, UFC900308). Purity of the sample was analyzed by SDS-PAGE and its identity confirmed by MALDI-TOF mass spectrometry. The sample was then frozen until fluorescence polarization experiments were performed.

In assay [4] the target is T2, ASAP1-SH3. In words: Fluorescence polarization displacement, ASAP1-SH3 domain. It is filed as binding. As for the experimental part: as §3
as §4, with “(TCEP). […]” for “(TCEP).”

For assay [5], the target named is T3, BIN1 SH3 (Homo sapiens, UniProt O00499).
T3 chain: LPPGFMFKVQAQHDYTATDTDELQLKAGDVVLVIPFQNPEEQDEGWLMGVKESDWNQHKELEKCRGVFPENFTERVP
In words: fluorescence polarization displacement.

For assay [6], the target named is T3, BIN1 SH3. The experiment in a line: fluorescence polarization saturation.
Assay [7] deals with T4, ASAP1 SH3 (Homo sapiens, UniProt Q9ULH1).
T4 chain: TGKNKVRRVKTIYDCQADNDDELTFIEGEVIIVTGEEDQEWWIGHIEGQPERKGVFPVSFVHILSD
In words: fluorescence polarization saturation.

Where a SMILES comes first, the peptide text is derived from it. Where no end group is shown, it is not given here.

“150-KRGPPPRSGGPPPKRSAPSGPy-170 [hnRNP G aa 150-170, wildtype FITC, FITC-labeled wildtype hnRNP G peptide, residues 150-170]”: the “binding to BIN1-SH3 (in words)” value in assay [1] is given as “binding with moderate affinities”. Further, in assay [2], the “binding to ASAP1-SH3 (in words)” value is on record as “binding with moderate affinities”.
On to `C[C@H](NC(=O)[C@H](CO)NC(=O)[C@H](CCCNC(=N)N)NC(=O)[C@H](CCCCN)NC(=O)[C@@H]1CCCN1C(=O)[C@@H]1CCCN1C(=O)CNC(=O)CNC(=O)[C@H](CO)NC(=O)[C@@H](N)CCCNC(=N)N)C(=O)N1CCC[C@H]1C(=O)N[C@@H](CO)C(=O)NCC(=O)N[C@@H](Cc1ccc(O)cc1)C(=O)O` [hnRNP G aa 156-169, △P162] (H-RSGGPPKRSAPSGY-OH; N-terminus and C-terminus assumed), for which the “binding affinity for BIN1-SH3 (in words)” value in assay [3] is on record as “reduced binding affinity”. Further, in assay [3] (short peptide aa 156–169 △P162 vs wildtype), the “affinity for BIN1-SH3 relative to wildtype peptide (fold)” value is listed as “threefold weaker affinity”.
Consider `C[C@H](NC(=O)[C@H](CO)NC(=O)[C@H](CCCNC(=N)N)NC(=O)[C@H](CCCCN)NC(=O)[C@@H]1CCCN1C(=O)[C@@H]1CCCN1C(=O)[C@@H]1CCCN1C(=O)CNC(=O)CNC(=O)[C@H](CO)NC(=O)[C@H](CCCNC(=N)N)NC(=O)[C@@H]1CCCN1C(=O)[C@@H]1CCCN1C(=O)CNC(=O)[C@H](CCCNC(=N)N)NC(=O)[C@@H](N)CCCCN)C(=O)N1CCC[C@H]1C(=O)N[C@@H](CO)C(=O)NCC(=O)N1CCC[C@H]1C(=O)N[C@@H](Cc1ccc(O)cc1)C(=O)O` [hnRNP G aa 150-170, △P162] (H-KRGPPRSGGPPPKRSAPSGPY-OH; N-terminus and C-terminus assumed), for which the “binding affinity for BIN1-SH3 (in words)” value in assay [3] is “no clear difference in binding affinity compared to the wildtype peptide”; in assay [3] (listed as longer hnRNP G peptide, △P162 variant), “no clear difference in SH3 binding affinity between the wildtype and the mutant peptide”.
`C[C@H](NC(=O)[C@H](CO)NC(=O)[C@H](CCCNC(=N)N)NC(=O)[C@H](CCCCN)NC(=O)[C@@H]1CCCN1C(=O)[C@@H]1CCCN1C(=O)[C@@H]1CCCN1C(=O)CNC(=O)CNC(=O)[C@H](CO)NC(=O)[C@@H](N)CCCNC(=N)N)C(=O)N1CCC[C@H]1C(=O)N[C@@H](CO)C(=O)NCC(=O)N[C@@H](Cc1ccc(O)cc1)C(=O)O` [hnRNP G aa 156-169, wildtype] (H-RSGGPPPKRSAPSGY-OH; N-terminus and C-terminus assumed): the “binding affinity for BIN1-SH3 (in words)” value in assay [3] is “moderate affinities”; in assay [3] (listed as shorter hnRNP G peptide (aa 156–169)), “weaker but comparable affinity”. Also, the “binding affinity for ASAP1-SH3 (in words)” value in assay [4] is “moderate affinities”.

B1: hnRNP G 150-170 (peptide)
chain: KRGPPPRSGGPPPKRSAPSGP
The Kd is the free concentration of one partner at which half of the binding sites on the other are occupied at equilibrium, for simple one-to-one binding. High values mean lower affinity, low ones higher affinity. Molecule B1 showed a Kd in assay [5] of 40 µM.

B2: hnRNP G 156-169 (peptide)
chain: RSGGPPPKRSAPSG
B2 returned a Kd in assay [5] of 150 µM. This Kd is about 3.8-fold higher than that of the molecule before.

B3: hnRNP G 150-170 (peptide)
chain: KRGPPPRSGGPPPKRSAPSGP
modifications: also: FITC-labeled, site not given here
Consider B3, for which the Kd in assay [6] and in assay [7] was around 400 µM in each case.
